Measured values: ChEMBL document CHEMBL4483862, “Open-source discovery of chemical leads for next-generation chemoprotective antimalarials” (2018)

Tested on: Plasmodium berghei
Test: Luciferase/luciferin-expressing antifolate-resistant parasites were used to infect a culture of HepG2 cells that were pre-incubated with compounds. Infected hepatocytes emit light due to the luciferase reaction. Assay results are presented as the percent inhibition of light emission compared to control. […]
Format: functional
Settings: sporozoite; for IC90: read-out: LUCIFERASE INFECTION ASSAY - IC90

Structure (SMILES)	IC90 [µM]	other results
Cc1ccc(NN2C(=O)C=C(c3ccccc3)C2=O)cc1	> 11.9	IC50 (HEPG2TOX_HILL_SLOPE 1.4, HEPG2TOX_R_SQUARED 0.882, PBLUC_HILL_SLOPE 17, PBLUC_R_SQUARED 0.623, read-out: LUCIFERASE INFECTION ASSAY - IC50): 11.2 µM
Cc1ccc2c(c1)CCCN2C(=O)CCc1nc(O)c2ccccc2n1	> 10	IC50 (HEPG2TOX_HILL_SLOPE 1.38, HEPG2TOX_R_SQUARED 0.978, PBLUC_HILL_SLOPE 0.881, PBLUC_R_SQUARED 0.443, read-out: LUCIFERASE INFECTION ASSAY - IC50): 3.89 µM
N#C/C(=N\Nc1ccc(OC(F)(F)F)cc1)C(=O)c1ccsc1	6.42	IC50 (HEPG2TOX_HILL_SLOPE 1.43, HEPG2TOX_R_SQUARED 0.957, PBLUC_HILL_SLOPE 2.41, PBLUC_R_SQUARED 0.455, read-out: LUCIFERASE INFECTION ASSAY - IC50): 2.58 µM
Cc1cc(Nc2cccc(C(F)(F)F)c2)n2ncc(C#N)c2n1	3.35	IC50 (HEPG2TOX_HILL_SLOPE 1.43, HEPG2TOX_R_SQUARED 0.906, PBLUC_HILL_SLOPE 4.64, PBLUC_R_SQUARED 0.533, read-out: LUCIFERASE INFECTION ASSAY - IC50): 2.09 µM
c1nc(NCc2ccc(CN3CCOCC3)cc2)c2sccc2n1	> 10	IC50 (HEPG2TOX_HILL_SLOPE 1.44, HEPG2TOX_R_SQUARED 0.736, PBLUC_HILL_SLOPE 1.22, PBLUC_R_SQUARED 0.605, read-out: LUCIFERASE INFECTION ASSAY - IC50): 2.88 µM
COc1ccc(NC(=O)c2ccoc2)cc1S(=O)(=O)Nc1ccc(Br)cc1	1.62	IC50 (HEPG2TOX_HILL_SLOPE 1.42, HEPG2TOX_R_SQUARED 0.956, PBLUC_HILL_SLOPE 2.25, PBLUC_R_SQUARED 0.81, read-out: LUCIFERASE INFECTION ASSAY - IC50): 0.611 µM
O=C(c1cnc(Nc2cccc(Oc3ccccc3)c2)[nH]1)c1ccccc1O	1.08	IC50 (HEPG2TOX_HILL_SLOPE 1.38, HEPG2TOX_R_SQUARED 0.947, PBLUC_HILL_SLOPE 15.8, PBLUC_R_SQUARED 0.824, read-out: LUCIFERASE INFECTION ASSAY - IC50): 0.938 µM
COC(=O)c1c(C)[nH]c(-c2nc(NCc3ccc(C)cc3)sc2C)c1C	8.74	IC50 (HEPG2TOX_HILL_SLOPE 1.4, HEPG2TOX_R_SQUARED 0.957, PBLUC_HILL_SLOPE 3.81, PBLUC_R_SQUARED 0.59, read-out: LUCIFERASE INFECTION ASSAY - IC50): 4.91 µM
Cc1ccc(NCC(=O)NC(=O)Nc2cccc(C)c2C)cc1S(=O)(=O)N1CCCCC1	> 10	IC50 (HEPG2TOX_HILL_SLOPE 1.43, HEPG2TOX_R_SQUARED 0.867, PBLUC_HILL_SLOPE 1.55, PBLUC_R_SQUARED 0.466, read-out: LUCIFERASE INFECTION ASSAY - IC50): 2.55 µM
COc1cc(-c2cnc3ccc(Cc4ccccc4)nn23)cc(OC)c1OC	> 10	IC50 (HEPG2TOX_HILL_SLOPE 1.4, HEPG2TOX_R_SQUARED 0.659, PBLUC_HILL_SLOPE 16.5, PBLUC_R_SQUARED 0.342, read-out: LUCIFERASE INFECTION ASSAY - IC50): 9.26 µM
CC(C)Cn1c(SCc2cn3cc(Cl)ccc3n2)nc2ccccc2c1=O	7.86	IC50 (HEPG2TOX_HILL_SLOPE 1.44, HEPG2TOX_R_SQUARED 0.631, PBLUC_HILL_SLOPE 96, PBLUC_R_SQUARED 0.548, read-out: LUCIFERASE INFECTION ASSAY - IC50): 7.68 µM
C/C(=N\NC(=O)c1ccc(Cl)cc1)c1ccccc1O	4.32	IC50 (HEPG2TOX_HILL_SLOPE 1.4, HEPG2TOX_R_SQUARED 0.87, PBLUC_HILL_SLOPE 14.3, PBLUC_R_SQUARED 0.668, read-out: LUCIFERASE INFECTION ASSAY - IC50): 3.7 µM
Cc1ccc(Nc2nc(C[N+]3(Cc4csc(Nc5ccc(C)cc5)n4)CCN(Cc4ccc(C#N)cc4)CC3)cs2)cc1	> 10	IC50 (HEPG2TOX_HILL_SLOPE 1.4, HEPG2TOX_R_SQUARED 0.751, PBLUC_HILL_SLOPE 1.26, PBLUC_R_SQUARED 0.51, read-out: LUCIFERASE INFECTION ASSAY - IC50): 1.97 µM
Cc1ccccc1-n1c(SCC(=O)Nc2sc3c(c2C(N)=O)CCC3)nc2ccccc2c1=O	> 10	IC50 (HEPG2TOX_HILL_SLOPE 1.4, HEPG2TOX_R_SQUARED 0.675, read-out: LUCIFERASE INFECTION ASSAY - IC50): > 10 µM
CCOc1cccc(-c2cn3c(-c4cccc(O)c4)cnc3cn2)c1	9.74	IC50 (HEPG2TOX_HILL_SLOPE 1.42, HEPG2TOX_R_SQUARED 0.867, PBLUC_HILL_SLOPE 1.9, PBLUC_R_SQUARED 0.651, read-out: LUCIFERASE INFECTION ASSAY - IC50): 3.05 µM
CCc1cc(=O)n2nc(-c3ccccc3)c(-c3ccccc3)c2[nH]1	> 10.5	IC50 (HEPG2TOX_HILL_SLOPE 1.41, HEPG2TOX_R_SQUARED 0.964, PBLUC_HILL_SLOPE 4.43, PBLUC_R_SQUARED 0.223, read-out: LUCIFERASE INFECTION ASSAY - IC50): 7.37 µM

Structure (SMILES)	IC90 [µM]	other results
O=C(Nc1ccc(I)cc1)C1CCN(C(=O)c2ccncc2)CC1	2.8	IC50 (HEPG2TOX_HILL_SLOPE 1.42, HEPG2TOX_R_SQUARED 0.857, PBLUC_HILL_SLOPE 1.13, PBLUC_R_SQUARED 0.975, read-out: LUCIFERASE INFECTION ASSAY - IC50): 0.403 µM
CC/C(=N\NC(=O)COc1cccc(Br)c1)c1cc(F)ccc1O	9.51	IC50 (HEPG2TOX_HILL_SLOPE 1.42, HEPG2TOX_R_SQUARED 0.962, PBLUC_HILL_SLOPE 3.55, PBLUC_R_SQUARED 0.0785, read-out: LUCIFERASE INFECTION ASSAY - IC50): 5.12 µM
Cc1ccc(N/N=C/c2c3ccccc3cc3ccccc23)cc1Cl	5.87	IC50 (HEPG2TOX_HILL_SLOPE 1.41, HEPG2TOX_R_SQUARED 0.742, PBLUC_HILL_SLOPE 1.25, PBLUC_R_SQUARED 0.657, read-out: LUCIFERASE INFECTION ASSAY - IC50): 1.01 µM
COc1cccc(-c2cn3c(-c4ccc5c(ccn5C)c4)cnc3cn2)c1F	0.145	IC50 (HEPG2TOX_HILL_SLOPE 1.41, HEPG2TOX_R_SQUARED 0.854, PBLUC_HILL_SLOPE 2.39, PBLUC_R_SQUARED 0.955, read-out: LUCIFERASE INFECTION ASSAY - IC50): 0.0579 µM
Cc1ccc(Nc2cc(C(C)C)c(OS(=O)(=O)c3ccc(C)cc3)c(C(C)C)c2)cc1	9.61	IC50 (HEPG2TOX_HILL_SLOPE 1.43, HEPG2TOX_R_SQUARED 0.724, PBLUC_HILL_SLOPE 19.9, PBLUC_R_SQUARED 0.613, read-out: LUCIFERASE INFECTION ASSAY - IC50): 8.6 µM
Cc1cc(-c2cnc(N)c(-c3cccc(C(F)(F)F)c3)c2)cc(C)c1O	4.83	IC50 (HEPG2TOX_HILL_SLOPE 1.44, HEPG2TOX_R_SQUARED 0.945, PBLUC_HILL_SLOPE 1.93, PBLUC_R_SQUARED 0.583, read-out: LUCIFERASE INFECTION ASSAY - IC50): 1.55 µM
Cc1nnsc1-c1onc(C)c1C(=O)NC(=O)Nc1cc(Cl)cc(Cl)c1	3.02	IC50 (HEPG2TOX_HILL_SLOPE 1.43, HEPG2TOX_R_SQUARED 0.987, PBLUC_HILL_SLOPE 8.7, PBLUC_R_SQUARED 0.518, read-out: LUCIFERASE INFECTION ASSAY - IC50): 2.34 µM
CCc1ccc(C(=O)Nc2cccc(NC(=O)c3ccccc3C)c2)cc1	1.14	IC50 (HEPG2TOX_HILL_SLOPE 1.42, HEPG2TOX_R_SQUARED 0.919, PBLUC_HILL_SLOPE 4.98, PBLUC_R_SQUARED 0.845, read-out: LUCIFERASE INFECTION ASSAY - IC50): 0.735 µM
Cc1ccc(OCCNC(=O)c2[nH]c3c(c2C)C(=O)CCC3)c(C)c1	2.74	IC50 (HEPG2TOX_HILL_SLOPE 1.42, HEPG2TOX_R_SQUARED 0.935, PBLUC_HILL_SLOPE 2.91, PBLUC_R_SQUARED 0.758, read-out: LUCIFERASE INFECTION ASSAY - IC50): 1.29 µM
Cc1cc(NC(=O)c2ccc(CN3CCN(C/C=C/c4ccccc4)CC3)cc2)ccc1Cl	> 10	IC50 (HEPG2TOX_HILL_SLOPE 1.44, HEPG2TOX_R_SQUARED 0.929, PBLUC_HILL_SLOPE 2.64, PBLUC_R_SQUARED 0.29, read-out: LUCIFERASE INFECTION ASSAY - IC50): 4.99 µM
Oc1c(C(Nc2nccs2)c2cccnc2)ccc2cccnc12 (configuration not stated)	3.75	IC50 (HEPG2TOX_HILL_SLOPE 1.4, HEPG2TOX_R_SQUARED 0.615, PBLUC_HILL_SLOPE 3.49, PBLUC_R_SQUARED 0.793, read-out: LUCIFERASE INFECTION ASSAY - IC50): 2 µM
O=C(Nc1ccc(SC(F)(F)F)cc1)Nc1ccc(SC(F)(F)F)cc1	0.867	IC50 (HEPG2TOX_HILL_SLOPE 1.44, HEPG2TOX_R_SQUARED 0.886, PBLUC_HILL_SLOPE 1.62, PBLUC_R_SQUARED 0.668, read-out: LUCIFERASE INFECTION ASSAY - IC50): 0.223 µM
CCc1cccc2c(C(=O)COC(=O)/C(C#N)=C/c3ccc(OC)cc3)c[nH]c12	> 10	IC50 (HEPG2TOX_HILL_SLOPE 1.4, HEPG2TOX_R_SQUARED 0.562, read-out: LUCIFERASE INFECTION ASSAY - IC50): > 10 µM
COc1cc(C(=O)N/N=C2/C(=O)c3cccc4cccc2c34)cc(OC)c1OC	3.67	IC50 (HEPG2TOX_HILL_SLOPE 1.4, HEPG2TOX_R_SQUARED 0.956, PBLUC_HILL_SLOPE 15.6, PBLUC_R_SQUARED 0.526, read-out: LUCIFERASE INFECTION ASSAY - IC50): 3.19 µM
NC(CCc1ccccc1)c1csc(Nc2cc(NCCCO)ncn2)n1 (configuration not stated)	> 8.58	IC50 (HEPG2TOX_HILL_SLOPE 1.38, HEPG2TOX_R_SQUARED 0.93, PBLUC_HILL_SLOPE 3.41, PBLUC_R_SQUARED 0.149, read-out: LUCIFERASE INFECTION ASSAY - IC50): 6.73 µM
